A value given as a limit tells only on which side of the number the result lay.

This note sets out measurements from patent publication US20220267260A1, “COMPOUNDS CONTAINING A SULFONIC GROUP AS KAT INHIBITORS” (Epizyme, Inc., priority 2016, published 2022).

In test [1] the target is T1, KAT6A (Homo sapiens, UniProt Q92794).
T1 construct: His-TEV tag (N, cleaved yes); made in house
As to the kind of experiment: KAT6A enzyme inhibition assay (SAMDI mass spectrometry). The note with it: His-TEV-KAT6A 501-784 enzyme construct. The format is biochemical.

Test [2] deals with T2, KAT5 (Homo sapiens, UniProt Q92993).
T2 construct: His-TEV tag (N, cleaved yes); made in house
Briefly: KAT5 enzyme inhibition assay (SAMDI mass spectrometry). The note with it: His-TEV-FL KAT5-Flag enzyme construct. The format is biochemical.

T2 sequence (Q92993 with tags, fused parts or gaps): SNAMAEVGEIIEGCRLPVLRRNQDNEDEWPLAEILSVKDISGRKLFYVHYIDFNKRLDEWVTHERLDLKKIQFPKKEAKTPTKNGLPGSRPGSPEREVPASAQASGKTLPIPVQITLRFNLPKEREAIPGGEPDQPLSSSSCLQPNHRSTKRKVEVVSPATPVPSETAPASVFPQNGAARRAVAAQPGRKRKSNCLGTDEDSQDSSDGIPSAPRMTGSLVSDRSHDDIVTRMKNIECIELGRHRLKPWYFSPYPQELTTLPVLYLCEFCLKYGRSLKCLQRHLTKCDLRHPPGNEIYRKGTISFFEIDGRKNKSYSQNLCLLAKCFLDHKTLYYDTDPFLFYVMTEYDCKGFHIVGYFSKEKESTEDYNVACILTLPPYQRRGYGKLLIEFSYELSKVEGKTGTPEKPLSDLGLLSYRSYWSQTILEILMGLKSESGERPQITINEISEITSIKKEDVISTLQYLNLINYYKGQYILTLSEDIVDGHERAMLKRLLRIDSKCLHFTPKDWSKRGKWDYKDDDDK
T1 sequence (Q92794 with tags, fused parts or gaps): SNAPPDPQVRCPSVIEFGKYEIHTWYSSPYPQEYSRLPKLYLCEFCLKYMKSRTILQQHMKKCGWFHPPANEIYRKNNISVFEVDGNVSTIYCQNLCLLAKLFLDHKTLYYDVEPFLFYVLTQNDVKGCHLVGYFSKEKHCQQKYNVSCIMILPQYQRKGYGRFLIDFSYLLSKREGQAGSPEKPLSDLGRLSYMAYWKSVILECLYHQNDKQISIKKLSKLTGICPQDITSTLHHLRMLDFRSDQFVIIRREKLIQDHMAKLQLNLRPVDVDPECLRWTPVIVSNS

In the case of `Cc1cc(-c2ccccc2)cc(C(=O)NNS(=O)(=O)C(C)C2CCCCC2)c1F` (centres unmarked) [Compound I-385], the half-maximal inhibitory concentration (IC50) in test [1] and in test [2] was at most 10 µM in each case.

With `Cc1cc(C(=O)NNS(=O)(=O)c2ccccc2)c(F)c(-c2ccccc2)c1` [Compound I-142], the values for the IC50 in test [1] and in test [2] were at most 10 µM and 10 to 50 µM, respectively.

Regarding `Cc1cc(-c2ccccc2)cc(C(=O)NNS(=O)(=O)C2CCCN(C)C2)c1F` (centres unmarked) [Compound I-98], the IC50 in test [1] was 10 to 50 µM; in test [2], above 100 µM.

`Cc1cc(-c2ccccc2)cc(C(=O)Nc2nnc3n2CCCC3)c1F` [Compound I-150]: the half-maximal inhibitory concentration (IC50) in test [1] and in test [2] was above 100 µM throughout.

Regarding `Cc1c(-c2ccccc2)ccc(F)c1C(=O)NNS(=O)(=O)Cc1ccccc1` [Compound I-361], the IC50 in test [1] is above 100 µM; in test [2], 50 to 100 µM.

Take `O=C(NNS(=O)(=O)c1ccccc1)c1cc(-c2ccccc2)cc(F)c1F` [Compound I-250]: the IC50 in test [1] and in test [2] was at most 10 µM in each case.

For the molecule `Cc1cc(-c2ccccc2)cc(C(=O)NNS(=O)(=O)C2CCN(C(=O)OC(C)(C)C)C2)c1F` (centres unmarked) [Compound I-118, tert-Butyl 3-((2-(4-fluoro-5-methyl-[1,1′-biphenyl]-3-carbonyl)hydrazinyl)sulfonyl)pyrrolidine-1-carboxylate], the figures for the half-inhibitory concentration (IC50) in test [1] and in test [2] were at most 10 µM and 10 to 50 µM, respectively.

Take `Cc1cc(-c2ccccc2)cc(C(=O)NNS(C)(=O)=O)c1F` [Compound I-1]: the IC50 fell in the range of 10 to 50 µM in test [1] and 50 to 100 µM in test [2].

On to `Cc1c(F)c(C(=O)NNS(=O)(=O)C2CCCCC2)nn1C` [Compound I-475], for which the IC50 in test [1] and in test [2] was above 100 µM throughout.

On to `Cc1cc(-c2ccccc2)cc(C(=O)NNCC(F)(F)F)c1F` [Compound I-476], for which the half-inhibitory concentration (IC50) in test [1] and in test [2] was above 100 µM each time.

Consider `COc1ccc(Cn2cnc(-c3ccc(F)c(C(=O)NNS(=O)(=O)c4ccccc4)c3F)c2)cc1` [Compound I-222], for which the IC50 in test [1] was at most 10 µM; in test [2], 50 to 100 µM.

On to `Cc1nn(C)c(C(=O)NNS(=O)(=O)C2CCCCC2)c1F` [Compound I-469], for which the IC50 in test [1] and in test [2] was above 100 µM throughout.

Take `Cc1cc(-c2ccccc2)cc(C(=O)NNc2ncccn2)c1F` [Compound I-309]: the half-maximal inhibitory concentration (IC50) in test [1] and in test [2] was above 100 µM throughout.

`Cc1ccc(-c2csc(NS(=O)(=O)c3cccc(C(=O)O)c3)n2)cc1C` [Compound I-520]: the IC50 in test [1] and in test [2] was above 100 µM in each case.

As to `Cc1cccc(S(=O)(=O)NNC(=O)c2cc(-c3ccccc3)cc(C)c2F)c1` [Compound I-188], the IC50 in test [1] and in test [2] was at most 10 µM in each case.

`Cc1c(C(=O)NNS(=O)(=O)c2cccc(Cl)c2)cnn1-c1ccccc1` [Compound I-316]: the 50% inhibitory concentration (IC50) in test [1] and in test [2] was above 100 µM in each case.

Regarding `Cn1c(NNS(=O)(=O)c2ccccc2)nc2ccccc21` [Compound I-13], the IC50 in test [1] and in test [2] was above 100 µM each time.

On to `CCC(=O)N1CCCC(S(=O)(=O)NNC(=O)c2cc(-c3ccccc3)cc(C)c2F)C1` (centres unmarked) [Compound I-110], for which the IC50 in test [1] is at most 10 µM; in test [2], 50 to 100 µM.

With `Cc1cc(-c2cccc(F)c2)cc(C(=O)NNS(=O)(=O)CC2CCNCC2)c1F` [Compound I-357], the 50% inhibitory concentration (IC50) in test [1] was above 100 µM; in test [2], 50 to 100 µM.

As to `Cc1cc(-c2ccccc2)cc(C(=O)NNS(=O)(=O)C2CCCN(C(C)C)C2)c1F` (centres unmarked) [Compound I-100], the IC50 is 50 to 100 µM in test [1] and above 100 µM in test [2].

In the case of `CC(=O)N1CCC(S(=O)(=O)NNC(=O)c2cc(Cl)cc(Cl)c2F)CC1` [Compound I-435], the IC50 in test [1] and in test [2] was above 100 µM in each case.

In the case of `Cc1cc(-c2ccccc2)cc(C(=O)NNS(=O)(=O)c2ccc(O)cc2)c1F` [Compound I-211], the IC50 in test [1] and in test [2] was at most 10 µM throughout.
